According to paper PMC11994961, “In Vivo pharmacokinetic interactions of ribociclib with rivaroxaban and apixaban in rats: implications for increased drug exposure and dose adjustments” (Frontiers in Pharmacology, 2025):
Like-named read-outs stand apart in the source and are kept apart here.

What was measured:
[1] = Pharmacokinetic study of apixaban in rats, alone and after ribociclib (UPLC-MS/MS plasma levels); assay type: in vivo, Sprague-Dawley rats; conditions: for AUC(0-inf) / Cmax / Tmax / half-life / CL/F / MRT inf / MRT last / Vd/F: po, 0.5 mg/kg; for CL/F: read-out: CLz/F (converted); for MRT inf: read-out: MRT0- ∞; for MRT last: read-out: MRT0-t; for Vd/F: read-out: Vz/F
Method: Experimental animals were randomly divided into nine groups (n = 6, Table 1). Ribociclib was suspended in methylcellulose (MC), rivaroxaban was prepared in hydroxypropyl methylcellulose (HPMC), and apixaban was suspended in 5% DMSO in water. To achieve steady-state blood concentrations, a drug typically requires five to seven half-lives. Based on this principle, ribociclib was administered orally for eight consecutive days, while rivaroxaban and apixaban were administered orally for five consecutive days to ensure steady-state concentrations were reached before further analysis.
Approximately 0.1 mL of blood was collected into heparinized tubes via the orbitalat specified time points before and after the final drug administration. For apixaban, blood samples were collected at 0, 0.083, 0.167, 0.25, 0.333, 0.5, 0.75, 1, 3, 5, 7, 10, and 12 h. For rivaroxaban, sampling was conducted at 0, 0.167, 0.333, 0.5, 0.75, 1.5, 2, 3, 4, 5, 6, 8, 10, 12, and 24 h. For ribociclib, samples were taken at 0, 0.5, 1, 2, 4, 5, 6, 8, 10, 12, 24, and 48 h. Blood samples were centrifuged at 3,500 rpm for 10 min, and the supernatant was collected and stored at −80°C until processing for UPLC-MS/MS.
Apixaban and rivaroxaban concentrations in plasma samples were determined using our previously established UPLC-MS/MS method ([Wang et al., 2023]). Ribociclib concentrations were quantified using an LC-30A UPLC system (Shimadzu, Kyoto, Japan) coupled with a Sciex Triple Quad 5500 tandem quadrupole mass spectrometer (AB Sciex, Framingham, MA, United States) equipped with an electrospray ionization interface. Chromatographic separation was performed using a Welch Boltimate column (2.1 mm × 100 mm, 2.7 μm) maintained at 40°C. The mobile phase was composed of water containing 0.1% formic acid (phase A) and acetonitrile (phase B). The flow rate was held constant at 0.3 mL/min. The gradient elution protocol was as follows: 0–2.5 min, 60% B; 2.5–3.5 min, 60%–90% B; 3.5–5.5 min, 90% B; 5.5–5.6 min, 90%–60% B; 5.6–6.6 min, 60% B. The injection volume was 1 μL.
Pharmacokinetic parameters were calculated based on a non-compartmental model using DAS 2.1.1 Software (Mathematical Pharmacology Professional Committee of China, Shanghai, China). The area under the concentration–time curve (AUC), maximum plasma concentration (Cmax), time to maximum plasma concentration (Tmax), the time required to eliminate half of the plasma drug concentration (t1/2), clearance of drug plasma volume per unit time (CLz/F), apparent volume distribution (Vz/F), mean residence time (MRT) and the absorption rate constant (Ka) are all expressed as mean ± standard deviation (SD). SPSS 25.0 statistical software (SPSS Inc., Chicago, IL, United States) was applied to statistically analyze the mainpharmacokinetic parameters. Shapiro-Wilk test was used to assess whether the data were normally distributed, t test was used for parameters conforming to the normal distribution, and Mann-Whitney U test was used for parameters not conforming to the normal distribution. Statistical comparisons were conducted using a analysis of variance, t-test or nonparametric rank-sum test depending on the data type. A P-value <0.05 was deemed statistically significant.

[2] = design: method as in Hindley et al., 2023; conditions: ref Hindley et al., 2023; cited from earlier work
[3] = design: method as in Wang et al., 2023; conditions: rats, with almonertinib; ref Wang et al., 2023; cited from earlier work
[4] = API 0.5 mg/kg after multiple doses of RIBO vs API alone
[5] = Sprague-Dawley, rat, plasma, API 0.5 mg/kg after RIBO 60 mg/kg for 8 days
[6] = Sprague-Dawley, rat, plasma, oral API 0.5 mg/kg alone

In the case of `COc1ccc(-n2nc(C(N)=O)c3c2C(=O)N(c2ccc(N4CCCCC4=O)cc2)CC3)cc1` [API, apixaban], the AUC(0-t) ([1]; API 0.5 mg/kg after RIBO 60 mg/kg for 8 days) is reported as 608.21 ± 196.17 ng·h/mL, the “CLz/F was decreased by” value [1, 4] is reported as 32.23% and the “difference in AUC0-t” value [1, 4] is reported as “not statistically significant”. The “difference in Cmax” value [1, 4] was “not statistically significant”, the “difference in Tmax” value [1, 4] was “not statistically significant” and the “increase of MRT0- ∞” value [1, 4] was 61.41%. For the same molecule, the “increase of MRT0-t” value [1, 4] was 14.45%, the “increase of t1/2z” value [1, 4] was 115.90% and the AUC(0-t) ([1]; Sprague-Dawley, rat, plasma, oral API 0.5 mg/kg alone, read-out: AUC0-t) was 409 ± 55.3 ng·h/mL. The AUC(0-inf) [1, 5] was 675 ± 221 ng·h/mL, the Cmax [1, 5] was 156 ± 42.4 ng/mL and the Tmax [1, 5] was 0.75 ± 0.16 h. The half-life [1, 5] was 5.16 ± 3.22 h, the CL/F [1, 5] was 13.7 mL/min/kg and the MRT inf [1, 5] was 4.81 ± 2.07 h. The MRT last [1, 5] was 3.01 ± 0.3 h, the Vd/F [1, 5] was 5.57 ± 2.63 L/kg and the AUC(0-inf) [1, 6] was 420 ± 54.2 ng·h/mL. It also gave a Cmax [1, 6] of 140 ± 29.4 ng/mL, a Tmax [1, 6] of 0.88 ± 0.14 h and a half-life [1, 6] of 2.39 ± 0.53 h. For the same molecule, the CL/F [1, 6] was 20.2 mL/min/kg, the MRT inf [1, 6] was 2.98 ± 0.32 h and the MRT last [1, 6] was 2.63 ± 0.1 h. For the same molecule, the Vd/F [1, 6] was 4.16 ± 1.07 L/kg, the plasma protein binding [2] was “approximately 87%” and the “increase in AUC” value [3] was “over three fold increases”. The “increase in Cmax” value [3] was “over three fold increases”.
